Laboratory results from patent US20240300913A1, “FLAVONE DERIVATIVE AND USE THEREOF FOR IMPROVING PULMONARY FIBROSIS” (A-CHEMBIO CO., LTD, priority 2023, published 2024).

Assays:
HLF cells [1] = experiment: Effect upon TGF-β1 treatment in HLF cells (western blot of protein levels); assay type: cell-based, human; conditions: 5 ng/mL TGF-β1 and compound, 24 hours, FIG. 32
Protocol: After suspending 5×10^6 human lung fibroblast (HLF) cells in a medium, […] dispensed into a 100-mm plate, and incubated for 24 hours. […] After 24 and 48 hours of incubation, the cells were lysed with RIPA lysis buffer ([50 mM Tris]-Cl (pH, 7.4), 1% NP-40, 150 mM NaCl, 1 mM EDTA, and 1 mM phenylmethylsulfonyl fluoride (PMSF)) containing MG-132 (10 μM, proteasome inhibitor, protect the HIF-1α subunit from proteasome degradation). Next, only the supernatant was collected by centrifugation (at 13,000 rpm for 7 minutes) at 4° C., and the proteins were separated by SDS-polyacrylamide gel electrophoresis (SDS-PAGE). The separated proteins were transferred to a polyvinylidene difluoride membrane (PVDF membrane), reacted in 5% nonfat dry milk for 2 hours, and then reacted with primary antibodies at 4° C. overnight. After overnight, the proteins further reacted with secondary antibodies corresponding to the respective primary antibodies. Then, the protein band was examined, according to the manufacturer's protocol, using an ECL kit.
The effect of novel flavone derivative II upon TGF-β1 treatment in HLF cells was evaluated in the same manner as in Example 1 above.
The effect of novel flavone derivative III upon TGF-β1 treatment in HLF cells was evaluated in the same manner as in Example 1 above.

A549 cells [2] = experiment: MTT cytotoxicity evaluation in A549 cells; assay type: cell-based; conditions: all treatment concentrations up to 20 μM, incubated for 24, 48, and 72 hours, compared to untreated control
Protocol: To confirm the effect of novel flavone derivative I on cell viability, A549 cells, derived from lung cancer, were used to examine cell viability with MTT [3-(4,5-dimethylthiazol-2-yl)-2,5-diphenyltetrazolium bromide]. After being suspended in a medium, A549 cells were dispensed into a 96-well plate and incubated for 24 hours. After 24 hours, 200 μL of a medium containing 0 to 20 μM BGC was added to each well of the plate and incubated for 24 or 48 hours. After incubation, MTT was diluted (0.5 mg/ml) in phosphate-buffered saline (PBS). Then, 20 μL of the diluted MTT was dispensed into each well, and incubation was performed in a CO2 incubator for 4 hours. After 4 hours, the MTT solution was removed, and 200 μL of dimethyl sulfoxide (DMSO) was dispensed into each well to dissolve the formazan precipitate for 5 minutes. Next, the absorbance was measured at 595 nm.
(§1) Cytotoxicity tests of novel flavone derivative II (Achem II) on A549 cells, HULEC-5a cells, and HLF cells were performed in the same manner as in Example 1 above, using the MTT assay. The results thereof are shown in FIGS. 17 to 19 as cell viability (%) after 24, 48, and 72 hours compared to that of the control group, the untreated sample group.
as §1, with “III” for “II”, “III)” for “II)”, “27” for “17”, “29” for “19”

HULEC-5a cells [3] = experiment: MTT cytotoxicity evaluation in HULEC-5a cells; assay type: cell-based, human; conditions: compared to untreated control
Protocol: (§2) To confirm the effect of novel flavone derivative I on cell viability, HULEC-5a, human lung microvascular endothelial cells, were used to examine cell viability with MTT [3-(4,5-dimethylthiazol-2-yl)-2,5-diphenyltetrazolium bromide]. After being suspended in a medium, HULEC-5a cells were dispensed into a 96-well plate and incubated for 24 hours. […] After incubation, all media was removed, and MTT was diluted (0.5 mg/mL) in phosphate-buffered saline (PBS). Then, 200 μL of the diluted MTT was dispensed into each well, and incubation was performed in a CO2 incubator for 4 hours. After 4 hours, the MTT solution was removed, and 160 μL of dimethyl sulfoxide (DMSO) was dispensed into each well to dissolve the formazan precipitate for 30 minutes. Next, the absorbance was measured at 570 nm.
as §1
as §1, with “III” for “II”, “III)” for “II)”, “27” for “17”, “29” for “19”

A549 cells [4] = experiment: Effect upon TGF-β1 treatment in A549 cells (western blot of protein levels); assay type: cell-based; conditions: 5 ng/mL TGF-β1 and compound, 24 hours, FIG. 30
Protocol: 3.5*10^5 A549 cells, derived from lung cancer, were suspended in a medium, dispensed into a 60-mm plate, and incubated for 48 hours. After 48 hours of incubation, each plate was treated with TGF-β1 (10 ng/ml) alone or in combination with novel flavone derivative I at varying concentrations or a predetermined concentration and/or nintedanib (NIDB), a therapeutic drug for idiopathic pulmonary fibrosis and interstitial lung disease as a positive control. […] Next, only the supernatant was collected by centrifugation (at 14,000 rpm for 10 minutes) at 4° C., and the proteins were separated by SDS-polyacrylamide gel electrophoresis (SDS-PAGE). The separated proteins were transferred to a polyvinylidene difluoride membrane (PVDF membrane), reacted in 5% nonfat dry milk for 3 hours, and then reacted with primary antibodies at 4° C. for 12 hours. After 12 hours, the proteins further reacted with secondary antibodies corresponding to the respective primary antibodies. Then, the protein band was examined, according to the manufacturer's protocol, using an ECL kit.
The effect of novel flavone derivative II upon TGF-β1 treatment in A549 cells was evaluated in the same manner as in Example 1 above. FIGS. 20 and 21 show the results thereof.
The effect of novel flavone derivative III upon TGF-β1 treatment in A549 cells was evaluated in the same manner as in Example 1 above.

HULEC-5a cells [5] = experiment: Effect upon TGF-β1 treatment in Hulec-5a cells (western blot of protein levels); assay type: cell-based, human; conditions: Hulec-5a cells, 5 ng/mL TGF-β1 and compound, 24 hours, FIG. 31
Protocol: 1.2×10^6 Hulec-5a cells, derived from pulmonary vessels, were suspended in a medium, dispensed into a 100-mm plate, and incubated for 24 hours. After 24 hours of incubation, each plate was treated with TGF-β1 (10 ng/ml) alone or in combination with novel flavone derivative I at varying concentrations or a predetermined concentration and/or nintedanib (NIDB), a therapeutic drug for idiopathic pulmonary fibrosis and interstitial lung disease. After 3, 24, and 48 hours of incubation, the cells were lysed with RIPA lysis buffer ([50 mM Tris]-Cl (pH, 7.4), 1% NP-40, 150 mM NaCl, 1 mM EDTA, and 1 mM phenylmethylsulfonyl fluoride (PMSF)) containing MG-132 (10 μM, proteasome inhibitor, protect the HIF-1α subunit from proteasome degradation). Next, only the supernatant was collected by centrifugation (at 13,000 rpm for 7 minutes) at 4° C., and the proteins were separated by SDS-polyacrylamide gel electrophoresis (SDS-PAGE). The separated proteins were transferred to a polyvinylidene difluoride membrane (PVDF membrane), reacted in 5% nonfat dry milk for 2 hours, and then reacted with primary antibodies at 4° C. overnight. After overnight, the proteins further reacted with secondary antibodies corresponding to the respective primary antibodies. Then, the protein band was examined, according to the manufacturer's protocol, using an ECL kit.
The effect of novel flavone derivative II upon TGF-β1 treatment in Hulec-5a cells was evaluated in the same manner as in Example 1 above.
The effect of novel flavone derivative III upon TGF-β1 treatment in Hulec-5a cells was evaluated in the same manner as in Example 1 above.

HLF cells [6] = experiment: MTT cytotoxicity evaluation in HLF cells; assay type: cell-based, human; conditions: concentrations of 15 and 20 μM, incubated for 24 hours, compared to untreated control
Protocol: as §2, with “viability,” for “viability, HULEC-5a,”, “fibroblasts (HLF)” for “microvascular endothelial cells,”, “HLF” for “HULEC-5a”
as §1
as §1, with “III” for “II”, “III)” for “II)”, “27” for “17”, “29” for “19”

Compound: COc1ccc(-c2c(-c3ccc(O)c(OC)c3)oc3cc(OC)c(OC)cc3c2=O)cc1 [novel flavone derivative III, 2-(4-hydroxy-3-methoxyphenyl)-6,7-dimethoxy-3-(4-methoxyphenyl)-4H-chromen-4-one]
- levels of fibronectin, COL4, COL1, α-SMA, HIF-1α, and NOX2, increased by TGF-β1 treatment (HLF cells [1]): decreased
- cell viability (A549 cells [2]): ≥ 80%
- cell viability (HULEC-5a cells [3]; concentration of 20 μM, incubated for 24 hours): ≤ 80%
- cell viability (HULEC-5a cells [3]; concentrations up to 15 μM, incubated for 24, 48, and 72 hours): ≥ 80%
- levels of fibronectin, COL4, and COL3, increased by TGF-β1 treatment (A549 cells [4]): decreased
- levels of fibronectin, COL4, and COL3, increased by TGF-β1 treatment (HULEC-5a cells [5]): decreased
- cell viability (HLF cells [6]): ≤ 80%
